Source: ChEMBL document CHEMBL5096221, “Discovery of a Highly Potent and Orally Bioavailable STAT3 Dual Phosphorylation Inhibitor for Pancreatic Cancer Treatment” (J Med Chem, 2022)
Activity calls are given as the source filed them. No cut-off for these calls is given here.

What was measured:
BXPC-3 [1] = assay: Anti-proliferative activity against human BXPC-3 cells assessed as cell growth inhibition incubated for 72 hrs by MTS assay; type: functional, cell-based; conditions: BXPC-3, 72 h
Cytochrome P450 1A2 = molecular target: T1, Cytochrome P450 1A2 (Homo sapiens, UniProt P05177); assay: Inhibition of CYP1A2 in human liver microsomes using phenacetin as substrate incubated for 30 mins in presence of NADPH by HPLC analysis; type: ADME, Microsome
T1 sequence (P05177 whole entry): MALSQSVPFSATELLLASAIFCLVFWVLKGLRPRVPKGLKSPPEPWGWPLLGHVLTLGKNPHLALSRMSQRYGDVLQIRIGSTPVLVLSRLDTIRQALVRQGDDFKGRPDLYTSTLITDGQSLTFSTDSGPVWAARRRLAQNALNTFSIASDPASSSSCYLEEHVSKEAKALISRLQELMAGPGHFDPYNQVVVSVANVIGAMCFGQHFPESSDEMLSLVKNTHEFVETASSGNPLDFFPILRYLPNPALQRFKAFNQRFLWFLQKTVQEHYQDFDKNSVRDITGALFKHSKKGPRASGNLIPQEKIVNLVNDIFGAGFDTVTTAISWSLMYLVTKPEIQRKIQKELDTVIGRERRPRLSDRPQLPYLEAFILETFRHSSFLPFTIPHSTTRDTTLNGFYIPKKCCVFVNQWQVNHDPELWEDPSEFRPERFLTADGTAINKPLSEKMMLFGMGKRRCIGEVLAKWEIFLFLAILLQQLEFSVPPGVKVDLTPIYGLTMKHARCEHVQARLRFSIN

Cytochrome P450 3A4 = Cytochrome P450 3A4 (Homo sapiens, UniProt P08684); assay: Inhibition of CYP3A4 in human liver microsomes using testosterone as substrate in presence of NADPH by HPLC analysis; type: ADME, Microsome
Sequence of Cytochrome P450 3A4 (P08684 whole entry): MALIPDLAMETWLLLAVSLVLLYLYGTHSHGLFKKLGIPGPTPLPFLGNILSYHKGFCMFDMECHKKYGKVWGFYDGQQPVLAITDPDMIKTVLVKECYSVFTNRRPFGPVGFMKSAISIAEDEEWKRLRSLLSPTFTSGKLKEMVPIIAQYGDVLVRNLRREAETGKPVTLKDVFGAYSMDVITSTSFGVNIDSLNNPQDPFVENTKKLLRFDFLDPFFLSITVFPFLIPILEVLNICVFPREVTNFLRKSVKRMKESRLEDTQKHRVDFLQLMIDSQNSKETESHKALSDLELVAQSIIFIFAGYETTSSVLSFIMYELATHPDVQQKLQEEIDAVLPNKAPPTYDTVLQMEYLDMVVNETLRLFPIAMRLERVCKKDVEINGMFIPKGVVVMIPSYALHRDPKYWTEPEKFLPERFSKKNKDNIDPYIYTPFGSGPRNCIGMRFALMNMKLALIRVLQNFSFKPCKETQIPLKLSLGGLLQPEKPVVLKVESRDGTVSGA

[2] = Cmax in BALB/c mouse at 1 mg/kg,iv measured upto 24 hrs by LC-MS/MS analysis; type: ADME, organism-based; set-up: dose 1 mg/kg, time < 24 hrs, route iv; conditions: in vivo
[3] = Volume of distribution at steady state in BALB/c mouse at 1 mg/kg,iv measured upto 24 hrs by LC-MS/MS analysis; type: ADME, organism-based; conditions: BALB/c, in vivo, read-out: Vdss
[4] = Clearance at steady state in BALB/c mouse at 1 mg/kg,iv measured upto 24 hrs by LC-MS/MS analysis; type: ADME, organism-based; conditions: BALB/c, in vivo
[5] = AUC (0-24hrs) in BALB/c mouse at 10 mg/kg,po measured upto 24 hrs by LC-MS/MS analysis; type: ADME, organism-based; set-up: dose 10 mg/kg, time < 24 hrs, route po; conditions: in vivo
[6] = Half life in BALB/c mouse at 10 mg/kg,po measured upto 24 hrs by LC-MS/MS analysis; type: ADME, organism-based; conditions: in vivo
[7] = molecular target: T2, Signal transducer and activator of transcription 3 (Homo sapiens, UniProt P40763); assay: Inhibition of STAT3 in human BXPC-3 cells assessed as inhibition of STAT3 phosphorylation at Ser 727 at 1 to 30 nM incubated for 22 to 24 hrs by western blot analysis; type: cell-based; conditions: dose 1-30 nM, time 22-24 hrs, DDE = dose-dependent effect
T2 sequence (P40763 whole entry): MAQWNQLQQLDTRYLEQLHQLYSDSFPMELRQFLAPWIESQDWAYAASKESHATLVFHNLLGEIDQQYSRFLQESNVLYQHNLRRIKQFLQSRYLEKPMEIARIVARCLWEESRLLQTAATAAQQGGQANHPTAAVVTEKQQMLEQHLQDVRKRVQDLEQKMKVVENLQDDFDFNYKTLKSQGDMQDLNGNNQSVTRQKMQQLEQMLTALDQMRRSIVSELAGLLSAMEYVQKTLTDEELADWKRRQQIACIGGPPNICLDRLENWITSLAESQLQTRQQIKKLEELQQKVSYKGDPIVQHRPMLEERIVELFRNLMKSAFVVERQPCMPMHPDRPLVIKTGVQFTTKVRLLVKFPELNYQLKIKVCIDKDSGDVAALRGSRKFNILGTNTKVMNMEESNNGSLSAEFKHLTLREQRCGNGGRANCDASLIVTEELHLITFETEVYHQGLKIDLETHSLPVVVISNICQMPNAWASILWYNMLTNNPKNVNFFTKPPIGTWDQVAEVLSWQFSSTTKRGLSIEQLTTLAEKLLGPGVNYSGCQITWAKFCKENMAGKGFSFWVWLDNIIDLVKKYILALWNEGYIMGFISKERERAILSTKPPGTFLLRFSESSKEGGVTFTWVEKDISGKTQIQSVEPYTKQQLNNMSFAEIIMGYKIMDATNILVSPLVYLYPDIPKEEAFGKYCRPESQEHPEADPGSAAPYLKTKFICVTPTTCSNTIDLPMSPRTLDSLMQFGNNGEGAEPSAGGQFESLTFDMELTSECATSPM

[8] = molecular target: T2, Signal transducer and activator of transcription 3; assay: Inhibition of STAT3 in human Capan-2 cells assessed as inhibition of STAT3 phosphorylation at Tyr 705 at 1 to 30 nM incubated for 22 to 24 hrs by western blot analysis; type: cell-based; conditions: dose 1-30 nM, time 22-24 hrs, DDE = dose-dependent effect
[9] = molecular target: T2, Signal transducer and activator of transcription 3; assay: Inhibition of STAT3 in human BXPC-3 cells assessed as inhibition of STAT3 phosphorylation at Ser 727 at 10 nM incubated for 22 to 24 hrs by western blot analysis; type: cell-based; conditions: time 22-24 hrs
[10] = molecular target: T2, Signal transducer and activator of transcription 3; assay: Inhibition of STAT3 in human Capan-2 cells assessed as reduction of Cyclin D1 expression at 1 to 30 nM incubated for 22 to 24 hrs by western blot analysis; type: cell-based; conditions: dose 1-30 nM, time 22-24 hrs, DDE = dose-dependent effect
[11] = molecular target: T2, Signal transducer and activator of transcription 3; assay: Inhibition of STAT3 in human Capan-2 cells assessed as reduction of Cyclin D1 expression at 30 nM incubated for 4 to 24 hrs by western blot analysis; type: cell-based; conditions: time 4-24 hrs, TDE = time-dependent effect
[12] = molecular target: Epidermal growth factor receptor (Homo sapiens, UniProt P00533); assay: Inhibition of EGFR (unknown origin)
Sequence of Epidermal growth factor receptor (P00533 whole entry): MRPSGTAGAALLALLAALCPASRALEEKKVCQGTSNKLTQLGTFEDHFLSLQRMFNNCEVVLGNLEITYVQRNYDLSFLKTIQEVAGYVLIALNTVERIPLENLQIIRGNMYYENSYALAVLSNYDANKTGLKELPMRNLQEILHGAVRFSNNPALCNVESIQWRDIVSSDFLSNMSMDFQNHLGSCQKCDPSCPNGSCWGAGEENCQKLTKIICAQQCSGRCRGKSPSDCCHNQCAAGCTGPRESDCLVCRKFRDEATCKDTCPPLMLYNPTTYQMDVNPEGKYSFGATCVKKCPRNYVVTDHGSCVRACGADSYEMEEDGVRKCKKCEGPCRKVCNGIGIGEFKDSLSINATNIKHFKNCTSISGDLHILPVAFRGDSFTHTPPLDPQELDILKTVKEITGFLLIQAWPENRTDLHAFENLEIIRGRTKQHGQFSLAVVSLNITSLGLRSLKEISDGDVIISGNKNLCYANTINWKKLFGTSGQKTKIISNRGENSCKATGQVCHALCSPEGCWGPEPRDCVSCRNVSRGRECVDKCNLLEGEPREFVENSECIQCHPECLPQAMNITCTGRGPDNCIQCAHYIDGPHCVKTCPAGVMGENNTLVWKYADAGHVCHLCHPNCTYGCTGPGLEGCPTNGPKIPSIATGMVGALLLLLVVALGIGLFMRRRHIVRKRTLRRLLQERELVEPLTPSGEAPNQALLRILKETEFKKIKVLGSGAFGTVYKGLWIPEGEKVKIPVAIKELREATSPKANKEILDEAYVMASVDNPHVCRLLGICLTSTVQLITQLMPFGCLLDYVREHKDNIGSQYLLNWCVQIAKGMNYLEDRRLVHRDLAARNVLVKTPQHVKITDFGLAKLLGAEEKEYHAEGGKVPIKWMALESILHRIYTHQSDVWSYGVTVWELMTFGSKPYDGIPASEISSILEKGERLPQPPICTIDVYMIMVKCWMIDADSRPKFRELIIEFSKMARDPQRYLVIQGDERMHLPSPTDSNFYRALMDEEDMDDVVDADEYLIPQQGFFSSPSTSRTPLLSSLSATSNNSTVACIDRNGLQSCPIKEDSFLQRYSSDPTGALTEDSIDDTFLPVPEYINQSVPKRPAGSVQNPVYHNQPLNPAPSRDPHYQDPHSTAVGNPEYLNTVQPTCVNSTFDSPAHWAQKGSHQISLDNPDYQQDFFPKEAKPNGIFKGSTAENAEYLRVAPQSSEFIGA

[13] = molecular target: T2, Signal transducer and activator of transcription 3; assay: Inhibition of STAT3 in human Capan-2 cells assessed as inhibition of IL-6 stimulated STAT3 phosphorylation at Tyr 705 at 1 to 30 nM by western blot assay; type: cell-based; conditions: dose 1-30 nM, DDE = dose-dependent effect
[14] = molecular target: T2, Signal transducer and activator of transcription 3; assay: Inhibition of STAT3 in human BXPC-3 cells assessed as inhibition of IL-6 stimulated cytoplasmic STAT3 phosphorylation at Tyr 705 at 1 to 30 nM by western blot assay; type: cell-based; conditions: dose 1-30 nM
BXPC-3 [15] = assay: Inhibition of mitochondrial respiration in human BXPC-3 cells at 1 to 30 nM incubated for 1 hr by seahorse XF96 flux analyzer; type: functional, cell-based; conditions: dose 1-30 nM, DDE = dose-dependent effect
CFPAC-1 [16] = assay: Inhibition of mitochondrial respiration in human CFPAC-1 cells at 1 to 30 nM incubated for 1 hr by seahorse XF96 flux analyzer; type: functional, cell-based; conditions: dose 1-30 nM, DDE = dose-dependent effect
BXPC-3 [17] = assay: Inhibition of mitochondrial respiration in human BXPC-3 cells assessed as reduction in basal respiration rate at 1 to 30 nM incubated for 1 hr by seahorse XF96 flux analyzer; type: functional, cell-based; conditions: dose 1-30 nM, DDE = dose-dependent effect
CFPAC-1 [18] = assay: Inhibition of mitochondrial respiration in human CFPAC-1 cells assessed as reduction in basal respiration rate at 1 to 30 nM incubated for 1 hr by seahorse XF96 flux analyzer; type: functional, cell-based; conditions: dose 1-30 nM, DDE = dose-dependent effect
MIA PaCa-2 = assay: Anti-proliferative activity against human MIA PaCa-2 cells assessed as cell growth inhibition incubated for 72 hrs by MTS assay; type: functional, cell-based; conditions: MIA PaCa-2, 72 h
PC-3 = assay: Anti-proliferative activity against human PC-3 cells assessed as cell growth inhibition incubated for 72 hrs by MTS assay; type: functional, cell-based; conditions: PC-3, 72 h
Capan-2 = assay: Inhibition of colony formation in human Capan-2 cells at 3 to 10 nM incubated for 5 to 7 days by crystal violet staining assay; type: functional, cell-based; conditions: dose 3-10 nM, time 5-7 day, DDE = dose-dependent effect
BXPC-3 [19] = assay: Antitumor activity against human BXPC-3 cells xenografted BALB/c mouse model assessed as tumor growth inhibition at 10 mg/kg,po administrated once daily for 8 weeks; type: functional; conditions: BXPC-3, 1344 h, read-out: TGI
BXPC-3 [20] = assay: Antitumor activity against human BXPC-3 cells xenografted BALB/c mouse model assessed as reduction in Ki67 expression at 30 mg/kg,po administrated once daily for 8 weeks by immunohistochemical analysis; type: functional, organism-based
[21] = Toxicity in BALB/c mouse xenografted with human BXPC-3 cells assessed as body weight change at 10 mg/kg,po administrated once daily for 8 weeks; type: organism-based; conditions: in vivo, 1344 h
[22] = Toxicity in BALB/c mouse xenografted with human BXPC-3 cells assessed as effect on kidney at 30 mg/kg,po administrated once daily for 8 weeks by H and E staining based microscopic analysis; type: organism-based; conditions: in vivo, 1344 h
[23] = molecular target: T2, Signal transducer and activator of transcription 3; assay: Thermal stabilization of STAT3 in human BXPC-3 cells at 10 microM at 47.4 degreeC incubated for 1 hrs by cellular thermal shift assay; type: cell-based
[24] = molecular target: T2, Signal transducer and activator of transcription 3; assay: Thermal stabilization of STAT3 in human BXPC-3 cells at 10 microM at 50.6 degreeC incubated for 1 hrs by cellular thermal shift assay; type: cell-based

- IC50 (BXPC-3 [1]): 0.4 nM
- IC50 (Cytochrome P450 1A2): > 50000 nM
- IC50 (Cytochrome P450 3A4): > 50000 nM
- Cmax [2]: 2570 ng/mL
- Vd [3]: 1.27 L/kg
- clearance [4]: 1.43 mL/min/kg
- AUC(0-t) at 24 h [5]: 27600 ng·h/mL
- half-life [6]: 9.4 h
- inhibition [7]: Dde
- inhibition [8]: Dde
- inhibition [9]: Active
- inhibition [10]: Dde
- inhibition [11]: Tde
- IC50 [12]: > 10000 nM
- inhibition [13]: Dde
- inhibition [14]: Active
- IC50 (MIA PaCa-2): 2.1 nM
- IC50 (PC-3): > 1000 nM
- Activity [23]: Active
- Activity [24]: Active
SMILES: COc1ccc(-c2noc(-c3cnc(Oc4ccc5cc(C(=O)N6CCN(Cc7ccc(OCC(F)(F)F)cc7)CC6)n(C)c5c4)cn3)n2)cc1
- inhibition (BXPC-3 [15]): Dde
- inhibition (CFPAC-1 [16]): Dde
- inhibition (BXPC-3 [17]): Dde
- inhibition (CFPAC-1 [18]): Dde
- inhibition (Capan-2): Dde
- inhibition in vivo at 10 mg/kg (BXPC-3 [19]): 69.2%
- Activity (BXPC-3 [20]): Active
- Activity [21]: Non-Toxic
- Activity [22]: Non-Toxic
